Results on 2 compounds are retold here after PMC9127186, “Molecular Basis Underlying Hepatobiliary and Renal Excretion of Phenolic Acids of Salvia miltiorrhiza Roots (Danshen)” (Frontiers in Pharmacology, 2022).

One data set deals with T1, rat Bsep (Rattus norvegicus, UniProt O70127).
T1 sequence (O70127 1-1321): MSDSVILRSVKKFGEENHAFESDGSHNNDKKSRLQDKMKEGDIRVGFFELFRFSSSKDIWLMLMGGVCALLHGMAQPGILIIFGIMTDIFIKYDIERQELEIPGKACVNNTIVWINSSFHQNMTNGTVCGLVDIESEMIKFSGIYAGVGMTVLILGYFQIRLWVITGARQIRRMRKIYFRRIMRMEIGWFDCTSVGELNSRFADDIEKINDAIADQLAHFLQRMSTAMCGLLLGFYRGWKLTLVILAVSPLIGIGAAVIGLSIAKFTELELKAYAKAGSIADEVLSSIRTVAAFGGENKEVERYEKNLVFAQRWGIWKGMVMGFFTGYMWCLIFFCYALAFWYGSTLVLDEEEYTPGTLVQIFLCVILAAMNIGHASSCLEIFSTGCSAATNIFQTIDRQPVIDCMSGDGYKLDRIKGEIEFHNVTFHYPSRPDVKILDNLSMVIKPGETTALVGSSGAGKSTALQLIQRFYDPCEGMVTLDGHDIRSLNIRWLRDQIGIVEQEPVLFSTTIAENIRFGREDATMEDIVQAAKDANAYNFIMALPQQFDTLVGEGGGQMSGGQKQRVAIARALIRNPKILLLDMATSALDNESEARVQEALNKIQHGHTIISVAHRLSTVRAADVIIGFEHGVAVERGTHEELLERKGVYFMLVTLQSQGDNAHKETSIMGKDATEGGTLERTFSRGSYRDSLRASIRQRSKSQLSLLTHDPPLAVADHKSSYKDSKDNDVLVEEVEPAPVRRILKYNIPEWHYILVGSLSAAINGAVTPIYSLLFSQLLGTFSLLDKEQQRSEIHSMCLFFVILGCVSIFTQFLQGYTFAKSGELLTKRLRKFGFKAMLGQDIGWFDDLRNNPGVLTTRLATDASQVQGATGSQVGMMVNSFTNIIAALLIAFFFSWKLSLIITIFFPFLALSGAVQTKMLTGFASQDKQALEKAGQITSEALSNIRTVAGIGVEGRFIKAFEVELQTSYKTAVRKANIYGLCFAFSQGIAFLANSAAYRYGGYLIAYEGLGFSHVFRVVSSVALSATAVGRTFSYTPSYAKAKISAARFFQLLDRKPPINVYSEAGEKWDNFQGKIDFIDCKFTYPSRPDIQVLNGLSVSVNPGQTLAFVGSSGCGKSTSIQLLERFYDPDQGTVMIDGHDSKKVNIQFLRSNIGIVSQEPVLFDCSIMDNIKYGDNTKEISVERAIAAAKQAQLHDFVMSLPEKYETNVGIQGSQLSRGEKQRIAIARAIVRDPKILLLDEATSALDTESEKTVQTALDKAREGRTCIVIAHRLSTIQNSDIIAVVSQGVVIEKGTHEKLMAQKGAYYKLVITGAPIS
As to the kind of experiment: Vesicular transport assay, inside-out membrane vesicles expressing rat Bsep. As to conditions: positive substrate 20 μM, 10 min; rat Bsep. As to the method:
(§1) Inside-out membrane vesicles (5 mg protein/mL), prepared from insect cells expressing human multidrug resistance-associated protein (MRP) 2, MRP3, MRP4, breast cancer resistance protein (BCRP), bile salt export pump (BSEP), and multidrug resistance protein (MDR) one and rat Mrp2, Mrp4, Bcrp, and Bsep, and vesicles (5 mg protein/mL; prepared from the insect cells expressing no ABC transporter; serving as negative control) were obtained from Genomembrane (Kanazawa, Japan).
(§2) The test Danshen compounds at 100 µM final concentration were separately incubated with the membrane vesicles for 10 min. Buffer C (50 mM MOPS-tris, 70 mM KCl, 7.5 mM MgCl2, pH 7.0) was used for preincubation and incubation, while buffer D (40 mM MOPS-tris, 70 mM KCl, pH 7.0) was used for vesicle washing. The transport rate (pmol/mg protein/min) of the test Danshen compound was calculated using Equation (2): Transport=(CV×VV)/T/WV (2) where C V, V V, T, and W V represent concentration of the compound in vesicular lysates supernatant (μM), volume of the lysates (μL), incubation time (10 min), and amount of vesicle protein amount per well (0.05 mg), respectively. Differential transport of the test Danshen compound between ATP-containing vesicles and AMP-containing vesicles was defined as net transport ratio (TransportATP/TransportAMP ratio). […] All the incubation samples were analyzed by liquid chromatography/mass spectrometry.

Another data set concerns the target T2, rat Ntcp (Rattus norvegicus, UniProt P26435).
T2 sequence (P26435 1-362): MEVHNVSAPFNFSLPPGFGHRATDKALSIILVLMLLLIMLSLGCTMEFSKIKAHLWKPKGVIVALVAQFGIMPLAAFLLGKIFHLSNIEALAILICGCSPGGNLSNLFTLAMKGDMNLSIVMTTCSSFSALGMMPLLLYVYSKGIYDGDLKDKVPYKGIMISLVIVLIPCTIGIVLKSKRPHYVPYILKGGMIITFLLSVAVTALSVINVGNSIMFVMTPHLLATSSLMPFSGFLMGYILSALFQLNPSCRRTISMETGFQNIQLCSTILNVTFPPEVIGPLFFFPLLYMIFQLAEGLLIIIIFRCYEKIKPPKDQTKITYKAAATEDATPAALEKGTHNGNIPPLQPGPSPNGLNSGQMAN
Kind of data set: Cellular transport assay, HEK-293 cells expressing rat Ntcp. As to conditions: positive substrate 20 μM, 10 min; rat Ntcp.

The next data set concerns the target human BSEP (Homo sapiens, UniProt O95342). As to the kind of experiment: Vesicular transport assay, inside-out membrane vesicles expressing human BSEP. To be noted: positive substrate 20 μM, 10 min; human BSEP. As for the experimental part: as §1, §2
The target of the next data set is T3, human NTCP (Homo sapiens, UniProt Q14973).
T3 sequence (Q14973 1-349): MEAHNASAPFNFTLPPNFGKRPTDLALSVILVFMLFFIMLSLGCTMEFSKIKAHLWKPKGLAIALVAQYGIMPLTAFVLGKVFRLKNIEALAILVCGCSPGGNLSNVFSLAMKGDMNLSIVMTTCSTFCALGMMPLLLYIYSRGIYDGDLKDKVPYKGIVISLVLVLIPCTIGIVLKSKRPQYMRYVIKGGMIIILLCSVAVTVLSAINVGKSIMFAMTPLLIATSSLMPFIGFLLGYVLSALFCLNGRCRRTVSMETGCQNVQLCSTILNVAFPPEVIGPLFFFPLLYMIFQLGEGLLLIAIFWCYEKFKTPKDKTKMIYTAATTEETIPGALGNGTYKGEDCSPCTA
Kind of data set: Cellular transport assay, HEK-293 cells expressing human NTCP. As to conditions: positive substrate 20 μM, 10 min; human NTCP.

The target of another data set is T4, rat Octn2 (Rattus norvegicus, UniProt O70594).
T4 sequence (O70594 1-557): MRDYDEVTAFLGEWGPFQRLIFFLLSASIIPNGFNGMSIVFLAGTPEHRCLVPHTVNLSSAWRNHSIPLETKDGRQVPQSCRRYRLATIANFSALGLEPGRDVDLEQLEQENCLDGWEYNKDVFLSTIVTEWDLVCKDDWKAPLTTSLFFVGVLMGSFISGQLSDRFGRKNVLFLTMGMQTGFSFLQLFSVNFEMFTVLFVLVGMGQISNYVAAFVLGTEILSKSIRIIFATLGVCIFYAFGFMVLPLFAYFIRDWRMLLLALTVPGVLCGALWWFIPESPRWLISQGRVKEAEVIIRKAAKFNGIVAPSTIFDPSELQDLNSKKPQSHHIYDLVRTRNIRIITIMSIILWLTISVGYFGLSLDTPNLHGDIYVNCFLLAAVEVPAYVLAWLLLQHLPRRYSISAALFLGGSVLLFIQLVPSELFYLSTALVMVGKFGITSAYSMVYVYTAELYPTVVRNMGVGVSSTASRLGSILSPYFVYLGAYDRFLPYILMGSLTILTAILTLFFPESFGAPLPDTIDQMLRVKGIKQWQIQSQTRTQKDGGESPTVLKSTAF
As to the kind of experiment: Cellular transport assay, HEK-293 cells expressing rat Octn2. To be noted: positive substrate 20 μM, 10 min; rat Octn2.

In another data set the target is T5, rat Oct3 (Rattus norvegicus, UniProt O88446).
T5 sequence (O88446 1-551): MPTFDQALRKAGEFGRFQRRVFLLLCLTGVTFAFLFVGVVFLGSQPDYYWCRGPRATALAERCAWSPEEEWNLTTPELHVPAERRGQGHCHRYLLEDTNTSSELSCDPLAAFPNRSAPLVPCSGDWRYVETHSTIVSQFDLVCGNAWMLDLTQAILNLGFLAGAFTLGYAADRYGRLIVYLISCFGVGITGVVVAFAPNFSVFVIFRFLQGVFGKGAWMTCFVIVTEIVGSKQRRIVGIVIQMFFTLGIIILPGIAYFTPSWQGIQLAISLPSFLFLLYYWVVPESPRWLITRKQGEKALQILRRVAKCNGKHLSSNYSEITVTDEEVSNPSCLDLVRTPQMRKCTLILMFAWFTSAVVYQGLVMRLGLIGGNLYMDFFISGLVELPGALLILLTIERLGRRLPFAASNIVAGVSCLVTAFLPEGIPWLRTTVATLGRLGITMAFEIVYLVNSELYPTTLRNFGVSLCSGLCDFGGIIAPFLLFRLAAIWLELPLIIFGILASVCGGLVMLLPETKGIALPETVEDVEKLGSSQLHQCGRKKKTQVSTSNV
As to the kind of experiment: Cellular transport assay, HEK-293 cells expressing rat Oct3. As to conditions: positive substrate 20 μM, 10 min; rat Oct3.

For the next data set, the target named is T6, human OCT3 (Homo sapiens, UniProt O75751).
T6 sequence (O75751 1-556): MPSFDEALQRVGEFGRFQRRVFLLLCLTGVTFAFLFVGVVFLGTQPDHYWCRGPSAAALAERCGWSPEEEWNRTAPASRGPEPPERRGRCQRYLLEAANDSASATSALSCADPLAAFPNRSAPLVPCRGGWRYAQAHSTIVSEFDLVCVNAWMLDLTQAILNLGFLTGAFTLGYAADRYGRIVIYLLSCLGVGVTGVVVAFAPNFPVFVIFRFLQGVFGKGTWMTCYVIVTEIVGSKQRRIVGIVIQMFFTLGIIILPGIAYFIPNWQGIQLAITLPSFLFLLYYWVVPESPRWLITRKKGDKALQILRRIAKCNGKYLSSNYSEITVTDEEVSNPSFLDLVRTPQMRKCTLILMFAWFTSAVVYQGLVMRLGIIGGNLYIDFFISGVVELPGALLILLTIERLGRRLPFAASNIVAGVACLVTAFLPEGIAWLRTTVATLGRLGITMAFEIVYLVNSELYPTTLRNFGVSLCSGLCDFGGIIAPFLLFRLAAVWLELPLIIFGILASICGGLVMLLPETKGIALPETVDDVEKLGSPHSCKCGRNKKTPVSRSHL
Kind of data set: Cellular transport assay, HEK-293 cells expressing human OCT3. As to conditions: positive substrate 20 μM, 10 min; human OCT3.

Sequence of human BSEP (O95342 whole entry): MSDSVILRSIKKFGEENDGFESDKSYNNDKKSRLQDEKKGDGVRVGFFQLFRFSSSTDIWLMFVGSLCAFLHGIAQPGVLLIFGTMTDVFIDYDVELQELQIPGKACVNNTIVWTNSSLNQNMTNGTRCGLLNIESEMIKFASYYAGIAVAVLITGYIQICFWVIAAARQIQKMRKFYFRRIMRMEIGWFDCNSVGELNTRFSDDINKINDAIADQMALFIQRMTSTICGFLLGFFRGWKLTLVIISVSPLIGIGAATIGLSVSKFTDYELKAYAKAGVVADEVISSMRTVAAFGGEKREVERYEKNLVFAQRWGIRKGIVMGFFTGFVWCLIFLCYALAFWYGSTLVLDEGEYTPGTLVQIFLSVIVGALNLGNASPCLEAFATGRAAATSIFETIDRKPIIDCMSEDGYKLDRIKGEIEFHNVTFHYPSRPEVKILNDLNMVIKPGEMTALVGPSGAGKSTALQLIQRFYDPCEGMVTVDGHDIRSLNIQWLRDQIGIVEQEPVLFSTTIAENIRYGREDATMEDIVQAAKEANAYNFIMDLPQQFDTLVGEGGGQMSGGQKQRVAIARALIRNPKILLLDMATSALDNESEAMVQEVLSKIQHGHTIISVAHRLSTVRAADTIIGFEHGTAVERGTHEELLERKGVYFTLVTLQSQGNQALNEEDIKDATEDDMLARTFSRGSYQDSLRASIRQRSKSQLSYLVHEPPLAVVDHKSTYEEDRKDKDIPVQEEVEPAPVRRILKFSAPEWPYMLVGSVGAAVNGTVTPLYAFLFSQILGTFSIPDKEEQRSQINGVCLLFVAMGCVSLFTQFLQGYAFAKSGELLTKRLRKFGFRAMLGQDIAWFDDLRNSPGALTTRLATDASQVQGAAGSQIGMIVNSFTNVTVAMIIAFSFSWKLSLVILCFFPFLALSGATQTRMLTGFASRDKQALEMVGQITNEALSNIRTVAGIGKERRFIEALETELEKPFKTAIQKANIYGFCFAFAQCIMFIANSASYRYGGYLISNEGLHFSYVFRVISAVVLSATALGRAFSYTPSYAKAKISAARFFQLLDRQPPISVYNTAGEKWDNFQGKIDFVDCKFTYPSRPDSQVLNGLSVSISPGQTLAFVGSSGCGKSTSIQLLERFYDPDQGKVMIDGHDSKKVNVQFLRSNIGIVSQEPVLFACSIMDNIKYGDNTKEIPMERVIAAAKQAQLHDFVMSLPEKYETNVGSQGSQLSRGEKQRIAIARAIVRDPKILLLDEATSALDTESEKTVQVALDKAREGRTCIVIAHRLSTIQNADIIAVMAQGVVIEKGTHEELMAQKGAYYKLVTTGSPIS

Consider `C[C@H](CCC(=O)NCCS(=O)(=O)O)[C@H]1CC[C@H]2[C@@H]3[C@H](O)C[C@@H]4C[C@H](O)CC[C@]4(C)[C@H]3C[C@H](O)[C@]12C` [TCA, taurocholic acid, reference compound], for which the “TransportATP/TransportAMP ratio, positive substrate” value at rat Bsep was 5.14 ± 0.88 (TCA); at human BSEP, 4.03 ± 0.89 (TCA). Moreover, the “TransportTC/TransportMC ratio, positive substrate” value at rat Ntcp is listed as 134 ± 15 (TCA); on human NTCP, 144 ± 30 (TCA).

For `CC[N+](CC)(CC)CC` [TEA, tetraethylammonium, reference compound], the entries for the “TransportTC/TransportMC ratio, positive substrate” value at rat Octn2, at rat Oct3 and at human OCT3 were 9.85 ± 0.74 (TEA), 3.90 ± 0.88 (TEA) and 4.45 ± 0.27 (TEA), respectively.
